Assay results: article PMC11091889, “Silver Organometallics that are Highly Potent Thioredoxin and Glutathione Reductase Inhibitors: Exploring the Correlations of Solution Chemistry with the Strong Antibacterial Effects” (ACS Infectious Diseases, 2024)

Experiments:
[1] = system: P. aeruginosa PA7 (DSM 24068); assay: microbe, parasite or virus in culture; format: cell-based, Pseudomonas aeruginosa; settings: n = 3, MHB; for MIC P. aeruginosa / EC50: mean ± standard error; for MIC P. aeruginosa / MIC P. aeruginosa (value in brackets): 22 h; for EC50: read-out: EC50 P. aeruginosa
Outline: (§1)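 Broth microdilution used 2–8 × 10^5 CFU/mL inocula, with compounds serially diluted 64 to 1 μg/mL and incubated 22 h at 37 °C, read at 600 nm. A. baumannii, K. pneumoniae and P. aeruginosa were grown in MHB pH 7.4; E. faecium was grown in TSY pH 7.0–7.2. MIC and EC50 were obtained by curve fitting from three independent experiments.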

[2] = system: K. pneumoniae (DSM 11678, ATCC33495); assay: Broth microdilution antibacterial assay; format: cell-based, Klebsiella pneumoniae; settings: n = 3, MHB; for MIC K. pneumoniae / EC50: mean ± standard error; for MIC K. pneumoniae / MIC K. pneumoniae (value in brackets): 22 h; for EC50: read-out: EC50 K. pneumoniae
Outline: as §1

[3] = 25 mM in DMSO, dark, 24 h, visual inspection
Protocol: Because of the formation of black colloidal silver in the course of degradation, the solution stability of silver NHC complexes can be monitored visually and with the help of nephelometry. All synthesized complexes were dissolved at 25 mM in DMSO and kept in the dark for 24 h.
After the experiment, the DMSO stock solutions of compounds were kept away from direct light at room temperature for 24 h to monitor the stability of solutions.

[4] = system: Caco-2 cells; settings: read-out: Cytotoxicity IC50 Caco-2; 24 h, almost confluent cell layers, highest concentration 100 μM
Protocol: Besides the antimicrobial effects, the toxic effects of silver ions have to be considered.[10],[12] As a primary evaluation of the cell toxicity triggered by silver NHC complexes, almost confluent cell layers of CaCo-2 cells were grown and challenged for 24 h with the silver complexes and also with the silver reference compounds AgNO3 and SSD (see Figure 6).
Caco-2 cells were grown as almost confluent monolayers in 96-well plates. The complexes were dissolved in wells of 96-well plates as stock solutions in DMSO (0.2% v/v) diluted with DMEM cell culture medium, which was supplemented with 10% fetal calf serum and 50 mg/L gentamicin. The cell layers were incubated with the drug containing media for 24 h at 37 °C/5% CO2 in an incubator. The cell viability was determined using crystal violet (0.02%) staining and was calculated as percentage of an untreated control. Results were obtained in three independent experiments.

[5] = system: E. coli (DSM1116, ATCC 9637); assay: microbe, parasite or virus in culture; format: cell-based, Escherichia coli; settings: for MIC E. coli DSM 1116 in MHB + tryptone: Müller-Hinton Broth with tryptone (17 g/L); for MIC E. coli DSM 1116 in MHB + tryptone / MIC E. coli DSM 1116 in MHB + yeast extract / MIC E. coli DSM 1116 in MHB: ± SE; for MIC E. coli DSM 1116 in MHB + yeast extract: Müller-Hinton Broth with yeast extract (3 g/L); for MIC E. coli DSM 1116 in MHB: Müller-Hinton Broth without additive; for EC50 / MIC E. coli: mean ± standard error; for EC50 / MIC E. coli / MIC E. coli (value in brackets): n = 3, MHB; for MIC E. coli / MIC E. coli (value in brackets): 22 h
Outline: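 Escherichia coli DSM1116 (ATCC 9637) was tested by broth microdilution in 96-well plates in duplicate, with compounds serially diluted from 64 to 1 μg/mL. Inocula of 2–8 × 10^5 CFU/mL were used in MHB (21 g/L Müller Hinton broth, pH 7.4), either alone or supplemented with tryptone (17 g/L) or yeast extract (3 g/L). After 22 h at 37 °C, absorbance at 600 nm was read. MIC and EC50 were obtained by curve fitting in Sigma Plot from three independent experiments, and ciprofloxacin served as the positive control.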

[6] = Conductometry: molar conductivity of silver complexes in DMSO; format: physicochemical; settings: 1.0 mM in DMSO, calculated as monocarbene (NHC)AgX
Outline: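 Molar conductivity of each silver complex was measured at 1.0 mM in freshly distilled DMSO (specific conductivity ≤3 × 10^–8 S cm^–1) using an Apera Instruments EC9500 conductivity meter at 25 ± 2 °C. AgNO3 served as the 1:1 electrolyte reference, and readings were taken after dissolution to distinguish neutral monocarbene from ionic biscarbene forms.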

[7] = target: T1, glutathione reductase (GR) from baker's yeast (Saccharomyces cerevisiae, UniProt P41921); assay: GR inhibition assay (DTNB reduction); format: biochemical; settings: ± standard deviation, n = 3, 75 min preincubation
T1 construct: purchased Sigma-Aldrich
T1 sequence (P41921 17-483 limits assumed): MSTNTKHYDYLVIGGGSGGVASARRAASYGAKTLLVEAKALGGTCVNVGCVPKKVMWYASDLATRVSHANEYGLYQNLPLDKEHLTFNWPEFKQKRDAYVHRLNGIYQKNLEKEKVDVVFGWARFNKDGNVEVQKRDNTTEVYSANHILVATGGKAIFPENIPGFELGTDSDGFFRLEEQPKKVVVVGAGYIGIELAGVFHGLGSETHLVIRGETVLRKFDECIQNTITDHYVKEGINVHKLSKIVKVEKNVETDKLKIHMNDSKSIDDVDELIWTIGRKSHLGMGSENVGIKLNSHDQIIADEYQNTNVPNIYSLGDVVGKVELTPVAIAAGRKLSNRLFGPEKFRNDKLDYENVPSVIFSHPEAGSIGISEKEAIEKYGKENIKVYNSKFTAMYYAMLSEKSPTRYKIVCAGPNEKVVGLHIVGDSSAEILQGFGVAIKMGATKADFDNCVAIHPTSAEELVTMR
Protocol: The inhibition of purified E. coli thioredoxin reductase (TrxR) and glutathione reductase (GR) from both E. coli and baker’s yeast was determined according to a previously applied procedure.[59],[60]
The TrxR (E. coli) and GR (baker’s yeast and E. coli) inhibition assays were performed according to previously published procedures.[62],[75] The assays are partly based on the procedure developed by Lu et al.[60] and make use of the reduction of 5,5′-dithiobis(2-nitrobenzoic acid) (DTNB). Solutions of E. coli TrxR (35.4 U/mL) and E. coli thioredoxin (Trx) (156 μg/mL) (both purchased from Sigma-Aldrich) or baker’s yeast GR (0,08 U/mL, Sigma-Aldrich) or E. coli GR (4.2 U/ml, Antibodies online) and GSSG (0.28 mM, Sigma-Aldrich) in distilled water were prepared, as were fresh 2 mM stock solutions of the test compounds in DMSO. Then, solutions with several concentrations of the test compounds in DMSO were prepared, and 35 μL of each solution was diluted with 965 μL of TE buffer (Tris–HCl 50 mM, EDTA 1 mM, pH 7.5). These solutions (20 μL) or TE buffer without the test compounds (20 μL, as control) were mixed with the TrxR or GR solutions (10 μL), the Trx or GSSG solutions (10 μL), and a solution of NADPH (200 μM) in TE buffer (100 μL) in a well on a 96-well plate. As a blank solution, 200 μM NADPH in TE buffer (100 μL) mixed with a DMSO/buffer mixture (40 μL) was used (final concentrations of DMSO: 0.5% v/v). The plate was incubated for 75 min at 25 °C with moderate shaking. After incubation, 100 μL of a reaction mixture (TE buffer containing 200 μM NADPH and 5 mM DTNB) was added to each well to initiate the reaction. After thorough mixing, the formation of 5-TNB was monitored by a microplate reader at 405 nm in 35 s intervals (10 measurements). The values were corrected by subtraction of the blank solution absorption values. The increase in the concentration of 5-TNB followed a linear trend (r^2 ≥ 0.990), and the enzymatic activities were calculated as the gradients (increase in absorbance per second) thereof. […] The inhibition is presented as the mean IC50 values and standard deviations obtained in three independent experiments.

| Structure (SMILES) | MIC P. aeruginosa [1] [µM] | EC50 [1] [µM] | MIC P. aeruginosa (value in brackets) [1] [µg/mL] | MIC K. pneumoniae [2] [µM] | EC50 [2] [µM] | MIC K. pneumoniae (value in brackets) [2] [µg/mL] | Solution stability (signs of degradation, precipitation, silver colloid) [3] | IC50 [4] [µM] | MIC E. coli DSM 1116 in MHB + tryptone [5] [µM] | MIC E. coli DSM 1116 in MHB + yeast extract [5] [µM] | MIC E. coli DSM 1116 in MHB [5] [µM] | EC50 [5] [µM] | MIC E. coli [5] [µM] | MIC E. coli (value in brackets) [5] [µg/mL] | Molar conductivity ΛM ([6]; 1 h after dissolution) [S cm^2 mol^–^1] | Molar conductivity ΛM ([6]; 24 h after dissolution) [S cm^2 mol^–^1] | IC50 [7] [µM] |
| --- | --- | --- | --- | --- | --- | --- | --- | --- | --- | --- | --- | --- | --- | --- | --- | --- | --- |
| CC(C)n1[c](=[Ag][I])n(Cc2ccccn2)c2ccccc21 [3c, Iodido (1-Isopropyl-3-(pyridin-2-ylmethyl)-benzimidazol-2-ylidene) Silver(I)] | 11.0 ± 2.7 | 6 ± 1 | 5 | 4.11 ± 0.0 | 2.3 ± 0.3 | 2 | did not show clear signs of degradation | > 100 | 54.9 ± 11.0 | 43.9 ± 11.0 | 11.0 ± 2.7 | 8.8 ± 2.5 | 11.0 ± 2.7 | 5 | 8.15 | 7.62 | 0.049 ± 0.004 |
| CC(C)n1[c](=[Ag][Cl])n(Cc2ccccn2)c2ccccc21 [3a, Chlorido (1-Isopropyl-3-(pyridin-2-ylmethyl)-benzimidazol-2-ylidene) Silver(I)] | 81.1 ± 0.0 | 39.1 ± 8.8 | 32 | 13.5 ± 3.4 | 9.8 ± 2.4 | 5 |  |  | 162.2 ± 0.0 | 162.2 ± 0.0 | 40.5 ± 0.0 | 35.3 ± 1.1 | 40.5 ± 0.0 | 16 | 3.34 | 2.91 | 0.044 ± 0.004 |
| COCCn1[c](=[Ag][I])n(Cc2ccccn2)c2ccccc21 [4c, Iodido (1-(2-Methoxyethyl)-3-(pyridin-2-ylmethyl)-benzimidazol-2-ylidene) Silver(I)] | 18.6 ± 7.0 | 4.9 ± 1.2 | 9 | 4.0 ± 0.0 | 2 | 2 | did not show clear signs of degradation | > 100 |  |  |  | 14.4 ± 2.7 | 21.2 ± 5.3 | 11 | 7.18 | 8.83 |  |
| CC(C)n1[c](=[Ag][Br])n(Cc2ccccn2)c2ccccc21 [3b, Bromido (1-Isopropyl-3-(pyridin-2-ylmethyl)-benzimidazol-2-ylidene) Silver(I)] | 60.7 ± 12.1 | 30 ± 6.9 | 26 | 18.2 ± 0.0 | 8.6 ± 0.2 | 8 |  |  | 145.7 ± 0.0 | 121.5 ± 24.3 | 36.4 ± 0.0 | 28.7 ± 3.6 | 36.4 ± 0.0 | 16 | 5.25 | 4.71 | 0.041 ± 0.006 |
